Here are results for one compound from paper PMC11982498 (Redox Biology, 2025).

SMILES strings stand for the structures. Bounds are passed on as bounds.

One test relates to RET promoter i-motif. Description: TO displacement assay, RET i-motif. The format is binding. As for the experimental part:
DNA oligonucleotides were diluted to 1 μM with 1 × PBES buffer at pH 5.5, annealed at 95 °C for 10 min, cooled to room temperature, and stored at 4 °C for future use. TO dye (1 μM) was added to the DNA solution followed with incubation for 1 h. The spectra of 100 μL mixture with addition of different equivalent compounds at 25 °C were recorded based on fluorescence emission (λex = 480 nm).
TO displacement ratio (%) = (F0 − FC) / (F0 − FB) * 100.
F0 and FC were the fluorescence intensity of TO at 536 nm with DNA before and after adding compounds, respectively. FB was the fluorescence intensity of TO at 536 nm with buffer only.

The test system of another test is BCL-2 promoter i-motif. Description: CD melting experiment, BCL-2 i-motif. The class given is binding. The note with it: BPES buffer pH 5.5; 20 equivalents (20 μM) compound. The procedure: CD-melting experiment was carried out following a published method without significant modification. BCL-2 promoter i-motif and G-quadruplex structures at a concentration of 5 μM were annealed in buffer at 95 °C for 10 min, and then cooled to room temperature. The annealed samples were incubated with B14 for 6 h, and then molar ellipticity at 287 nm for i-motif structure or 260 nm for G-quadruplex structure, where the CD value was the highest in our experiment, was measured over a temperature range of 20–90 °C at a heating rate of 0.5 °C/min. Tm values were determined and calculated through nonlinear regression curve fitting with software GraphPad Prism 9.0. (GraphPad Software Inc., California, USA).
Figure S6. CD melting experiments were performed to examine the effects of B14 and A22 on BCL-2 promoter i-motif and G-quadruplex. (A-H) CD melting experiments were performed for BCL-2 promoter i-motif or G-quadruplex in the absence or presence of B14 (2, 5, 20 equivalents) and A22 (20 equivalents). The oligonucleotide for BCL-2 i-motif was annealed in 1 X BPES buffer at pH 5.5, while the oligonucleotide for BCL-2 G-quadruplex was annealed in 20 mM Tris-HCl buffer with 20 mM NaCl at pH 7.4. The ΔTm values for the effects of B14 and A22 on BCL-2 promoter i-motif were determined to be 11.26 °C and 11.82 °C, respectively. […]

The next test deals with HT-22 cells. Description: MTT cytotoxicity assay, HT-22. The format is cell-based. The note with it: Mus musculus, incubation for 48 h. As for the experimental part:
SH-SY5Y cells, HepG2 cells, HK-2 cells and HT-22 cells were seeded on 96-well plates (5.0×10^3 per well) with 100 μL of culture medium, and incubated for 12 h at 37 °C in a humidified atmosphere with 5% CO2, and then exposed to various concentrations of B14. After 48 h of treatment at 37 °C in a humidified atmosphere with 5% CO2, 100 μL of 0.5 mg/mL MTT solution was added to each well, and the mixture was further incubated for 4 h. The cells in each well were then treated with DMSO (200 μL for each well), and the culture medium was siphoned off, and the absorbance was recorded at 570 nm. All drug doses were parallel tested in triplicate, and the cytotoxicity was evaluated based on the percentage of cell survival in a dose-dependent manner regarding the negative control. The final IC50 values were determined by using Graph Pad Prism 9.0.

Another test concerns the target T1, Aβ1-42 (Homo sapiens, UniProt P05067).
T1 construct: Aβ1-42 was purchased from Gill Biochemicals Ltd (Shanghai, China); purchased Gill Biochemicals Ltd (Shanghai, China)
Briefly: Congo red binding assay. The class given is biochemical. As to conditions: 20 μM compound, 72 h. As for the experimental part:
A total of 30 μM Congo red (Aladdin, Shanghai, China) solution (20 mM potassium phosphate, 50 mM NaCl, pH 7.4) was prepared and filtered with a 0.45 μm filter. The Aβ1-42 solutions (30 μM) were co-incubated with B14 (20 μM), A22 (20 μM), or Curcumin (20 μM) at 37 °C protected from light for 72h. The Aβ1-42 solution was mixed with equal volume of Congo red solution, followed by incubation for 30 min. A spectral region from 400 nm to 650 nm was measured by using a UV–vis spectrophotometer (AoE, China).
A total of 30 μM Congo red solution (20 mM potassium phosphate, 50 mM NaCl, pH 7.4) was prepared and filtered with a 0.45 μm filter. The Aβ1-42 solutions (30 μM) were co-incubated with B14 (20 μM) and Curcumin (20 μM) at 37 °C protected from light for 72h. The Aβ1-42 solution was mixed with equal volume of Congo red solution and incubated for 30 min. A spectral region from 400 nm to 650 nm was analyzed by using a UV-vis spectrophotometer (AoE, China).

Another test relates to BCL-2 i-motif. Description: ESI-MS with BCL-2 i-motif. The class given is binding. The note with it: pH 6.5. The procedure:
The oligomer for BCL-2 promoter […] at concentration of 5 μM was annealed in 1 × BPES buffer with or without 20 μM B14 at 95 °C for 5 min, followed by cooling to room temperature. Mass spectrometry signals were collected by using ESI-MS (Thermo, LCQ DECA Plus XP) and analyzed by using pro-mass.

Test [1] deals with Aβ1-42 aggregation in SH-SY5Y cells. Description: Fluorescence imaging of intracellular Aβ1-42 accumulation (ThT). The class given is cell-based. As to conditions: 25 μM Aβ1-42; 25 μM B14, 48 h. The procedure:
SH-SY5Y cells were seeded in a 96-well plate (6000 cells/well) in 100 μL medium. After the cells adhered to the wall, SH-SY5Y cells were incubated with serum-free medium containing 25 μM Aβ1-42 for 6 h to allow for the uptake of Aβ1-42 into the cells. Then solutions of B14 at different concentrations were added to the cells, with the mixtures incubated for 48 h. After being washed for three times with pre-cooled PBS, the cells were fixed with freshly prepared 4 % paraformaldehyde (Servicebio, Guangzhou, China) for 10 min at room temperature. After being washed for three times with pre-cooled PBS, the cells were incubated with ThT solution for 20 min at 25 °C in the dark. After washing for three times with pre-cooled PBS, the cells were stained with 10 μg/mL Hoechst 33342 solution (Aladdin, Shanghai, China) for 20 min at 25 °C in the dark. After washing for three times with pre-cooled PBS, the stained cells were observed and photographed with a FV3000 (Olympus, Japan) fluorescence microscope.

T1 sequence (P05067 672-713 limits assumed): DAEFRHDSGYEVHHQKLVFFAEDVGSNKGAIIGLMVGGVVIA

With `O=C(CCN1CCOCC1)Nc1ccc2c(c1)c(=O)c1cc(NC(=O)CCN3CCOCC3)ccc1n2-c1ccc2occc2c1` [Compound B14], the TO displacement ratio in the test with RET promoter i-motif came to 27%. In addition, in the test with BCL-2 promoter i-motif, the “ΔTm (CD melting)” value was found to be 11.26 °C. Moreover, the half-maximal inhibitory concentration (IC50) in the test with HT-22 cells was greater than 100 µM. For the same compound, the “absorbance of Congo red in the Aβ1-42 sample” value at Aβ1-42 is recorded as “significantly reduced”. Further, the “adduct peak in ESI-MS” value in the test on BCL-2 i-motif is listed as “could bind tightly to BCL-2 i-motif”. Also, the “ThT fluorescence of SH-SY5Y cells (intracellular Aβ1-42 aggregation)” value in test [1] is “almost completely disappeared”.
